Results from patent US10081631B2, “2-(1H-indazol-3-yl)-1H-imidazo[4,5-C]pyridine and therapeutic uses thereof” (Samumed, LLC, priority 2014, dated 2018).

Each compound was assayed on Wnt activity (Sp5-Luc reporter, SW480 colon carcinoma cells) (assay: Screening assay for Wnt activity: Sp5-Luc reporter gene assay in SW480 cells). Settings: Homo sapiens, 42 h incubation, luminescence.
Type: cell-based
Description: The screening assay for Wnt activity is described as follows. Reporter cell lines can be generated by stably transducing cancer cell lines (e.g., colon cancer) or primary cells (e.g., IEC-6 intestinal cells) with a lentiviral construct that includes a Wnt-responsive promoter driving expression of the firefly luciferase gene.
SW480 colon carcinoma cells were transduced with a lentiviral vector expressing luciferase with a human Sp5 promoter consisting of a sequence of eight TCF/LEF binding sites. SW480 cells stably expressing the Sp5-Luc reporter gene and a hygromycin resistance gene were selected by treatment with 150 μg/ml of hygromycin for 7 days. These stably transduced SW480 cells were expanded in cell culture and used for all further screening activities. For Sp5-Luc reporter gene assays, the cells were plated at 10,000 cells/well in 96-well plates with growth medium containing 10% fetal calf serum and incubated overnight at 37° C. and 5% CO2. Each compound was dissolved in DMSO as a 10 mM stock in standard j-vials and used to prepare compound source plates in dose-response format with 3-fold serial dilutions and a 10 mM top concentration. Compound transfer from serially diluted source plates to assay plates containing the cells was accomplished using a pintool (Multimek 96, Beckman equipped with V&P Scientific FP1S50H pins) based liquid handling protocol. This protocol used a slotted pin to transfer 50 nl of compound from a source plate well to an assay plate well containing 50 μl of cells in growth medium. […] Control wells received 50 nl of DMSO treatment for normalization and calculating IC50 values. The treated cells were incubated at 37° C. and 5% CO2 for an additional forty-two hours. Following incubation, the growth medium was removed and 50 μl of BrightGlo luminescence reagent (Promega) was added to each well of the 96-well assay plates. The plates were placed on an orbital shaker for 5 min and then luminescence was quantified on the Victor3 (Perkin Elmer) plate reader. Readings were normalized to DMSO only treated cells, and normalized activities were utilized for IC50 calculations using the dose-response log (inhibitor) vs. response-variable slope (four parameters) nonlinear regression feature available in GraphPad Prism 5.0 or 6.0.

| Compound | IC50 [nM] |
| --- | --- |
| O=C(Nc1cncc(-c2ccc3[nH]nc(-c4nc5c(-c6ccccn6)nccc5[nH]4)c3c2)c1)c1ccccc1 [Compound 141, N-(5-(3-(4-(Pyridin-2-yl)-1H-imidazo[4,5-c]pyridin-2-yl)-1H-indazol-5-yl)pyridin-3-yl)benzamide] | > 10000 |
| CN(C)Cc1cncc(-c2cc(F)c3[nH]nc(-c4nc5c(-c6ccsc6)nccc5[nH]4)c3c2)c1 [Compound 688, 1-(5-(7-Fluoro-3-(4-(thiophen-3-yl)-1H-imidazo[4,5-c]pyridin-2-yl)-1H-indazol-5-yl)pyridin-3-yl)-N,N-dimethylmethanamine] | 415 |
| CN(C)Cc1cncc(-c2cc3c(-c4nc5c(-c6cccc(F)c6)nccc5[nH]4)n[nH]c3cc2F)c1 [Compound 898, 1-(5-(6-Fluoro-3-(4-(3-fluorophenyl)-1H-imidazo[4,5-c]pyridin-2-yl)-1H-indazol-5-yl)pyridin-3-yl)-N,N-dimethylmethanamine] | 1450 |
| CN(C)Cc1cncc(-c2cc3c(-c4nc5c(-c6ccsc6)nccc5[nH]4)n[nH]c3cc2F)c1 [Compound 1132, 1-(5-(6-Fluoro-3-(4-(thiophen-3-yl)-1H-imidazo[4,5-c]pyridin-2-yl)-1H-indazol-5-yl)pyridin-3-yl)-N,N-dimethylmethanamine] | 3680 |
| CN(C)Cc1cncc(-c2cc3c(-c4nc5c(-c6cc(F)cc(CNS(C)(=O)=O)c6)nccc5[nH]4)n[nH]c3cc2F)c1 [Compound 1288, N-(3-(2-(5-(5-((Dimethylamino)methyl)pyridin-3-yl)-6-fluoro-1H-indazol-3-yl)-1H-imidazo[4,5-c]pyridin-4-yl)-5-fluorobenzyl)methanesulfonamide] | 637 |
| CN(C)Cc1cncc(-c2ccc3[nH]nc(-c4nc5c(-c6cccc(F)c6)nccc5[nH]4)c3c2F)c1 [Compound 1339, 1-(5-(4-Fluoro-3-(4-(3-fluorophenyl)-1H-imidazo[4,5-c]pyridin-2-yl)-1H-indazol-5-yl)pyridin-3-yl)-N,N-dimethylmethanamine] | 1180 |
| CN(C)Cc1cncc(-c2ccc3[nH]nc(-c4nc5c(-c6ccsc6)nccc5[nH]4)c3c2F)c1 [Compound 1573, 1-(5-(4-Fluoro-3-(4-(thiophen-3-yl)-1H-imidazo[4,5-c]pyridin-2-yl)-1H-indazol-5-yl)pyridin-3-yl)-N,N-dimethylmethanamine] | 3060 |
| CN(C)Cc1cncc(-c2ccc3[nH]nc(-c4nc5c(-c6cc(F)cc(CNS(C)(=O)=O)c6)nccc5[nH]4)c3c2F)c1 [Compound 1729, N-(3-(2-(5-(5-((Dimethylamino)methyl)pyridin-3-yl)-4-fluoro-1H-indazol-3-yl)-1H-imidazo[4,5-c]pyridin-4-yl)-5-fluorobenzyl)methanesulfonamide] | 1100 |
| Fc1cccc(-c2nccc3[nH]c(-c4n[nH]c5ccc(-c6cncc(OCCN7CCCC7)c6)cc45)nc23)c1 [Compound 1778, 4-(3-Fluorophenyl)-2-(5-(5-(2-(pyrrolidin-1-yl)ethoxy)pyridin-3-yl)-1H-indazol-3-yl)-1H-imidazo[4,5-c]pyridine] | 280 |
| Fc1cccc(-c2nccc3[nH]c(-c4n[nH]c5ccc(-c6cncc(OCc7ccccc7)c6)cc45)nc23)c1 [Compound 1782, 2-(5-(5-(Benzyloxy)pyridin-3-yl)-1H-indazol-3-yl)-4-(3-fluorophenyl)-1H-imidazo[4,5-c]pyridine] | 575 |
| O=C(CC1CCCCC1)Nc1cncc(-c2ccc3[nH]nc(-c4nc5c(-c6cccc(F)c6)nccc5[nH]4)c3c2)c1 [Compound 1783, 2-Cyclohexyl-N-(5-(3-(4-(3-fluorophenyl)-1H-imidazo[4,5-c]pyridin-2-yl)-1H-indazol-5-yl)pyridin-3-yl)acetamide] | 505 |
| CC(C)CC(=O)Nc1cncc(-c2ccc3[nH]nc(-c4nc5c(-c6cc(F)cc(OCCN(C)C)c6)nccc5[nH]4)c3c2)c1 [Compound 2076, N-(5-(3-(4-(3-(2-(Dimethylamino)ethoxy)-5-fluorophenyl)-1H-imidazo[4,5-c]pyridin-2-yl)-1H-indazol-5-yl)pyridin-3-yl)-3-methylbutanamide] | 370 |
| CC(C)CC(=O)Nc1cncc(-c2ccc3[nH]nc(-c4nc5c(-c6cc(F)cc(OCCN7CCCC7)c6)nccc5[nH]4)c3c2)c1 [Compound 2120, N-(5-(3-(4-(3-Fluoro-5-(2-(pyrrolidin-1-yl)ethoxy)phenyl)-1H-imidazo[4,5-c]pyridin-2-yl)-1H-indazol-5-yl)pyridin-3-yl)-3-methylbutanamide] | 305 |

The next compounds have a lower IC50 than those just listed; values first:

| IC50 [nM] | Compound |
| --- | --- |
| 36 | O=C(Cc1ccccc1)Nc1cncc(-c2ccc3[nH]nc(-c4nc5c(-c6ccncc6)nccc5[nH]4)c3c2)c1 [Compound 114, 2-Phenyl-N-(5-(3-(4-(pyridin-4-yl)-1H-imidazo[4,5-c]pyridin-2-yl)-1H-indazol-5-yl)pyridin-3-yl)acetamide] |
| 102 | CCCC(=O)Nc1cncc(-c2ccc3[nH]nc(-c4nc5c(-c6ccncc6)nccc5[nH]4)c3c2)c1 [Compound 121, N-(5-(3-(4-(Pyridin-4-yl)-1H-imidazo[4,5-c]pyridin-2-yl)-1H-indazol-5-yl)pyridin-3-yl)butyramide] |
| 248 | CCCCC(=O)Nc1cncc(-c2ccc3[nH]nc(-c4nc5c(-c6ccccn6)nccc5[nH]4)c3c2)c1 [Compound 148, N-(5-(3-(4-(Pyridin-2-yl)-1H-imidazo[4,5-c]pyridin-2-yl)-1H-indazol-5-yl)pyridin-3-yl)pentanamide] |
| 88.1 | CC(C)Nc1cncc(-c2ccc3[nH]nc(-c4nc5c(N6CCCCC6)nccc5[nH]4)c3c2)c1 [Compound 168, N-Isopropyl-5-(3-(4-(piperidin-1-yl)-1H-imidazo[4,5-c]pyridin-2-yl)-1H-indazol-5-yl)pyridin-3-amine] |
| 97.1 | CN1CCN(c2nccc3[nH]c(-c4n[nH]c5ccc(-c6cncc(N)c6)cc45)nc23)CC1 [Compound 211, 5-(3-(4-(4-Methylpiperazin-1-yl)-1H-imidazo[4,5-c]pyridin-2-yl)-1H-indazol-5-yl)pyridin-3-amine] |
| 65 | CN1CCN(c2nccc3[nH]c(-c4n[nH]c5ccc(-c6cccnc6)cc45)nc23)CC1 [Compound 212, 4-(4-Methylpiperazin-1-yl)-2-(5-(pyridin-3-yl)-1H-indazol-3-yl)-1H-imidazo [4,5-c]pyridine] |
| 187 | CC(=O)c1ccc(-c2nccc3[nH]c(-c4n[nH]c5ccc(-c6cncc(NC(=O)CC(C)(C)C)c6)cc45)nc23)s1 [Compound 380, N-(5-(3-(4-(5-Acetylthiophen-2-yl)-1H-imidazo[4,5-c]pyridin-2-yl)-1H-indazol-5-yl)pyridin-3-yl)-3,3-dimethylbutanamide] |
| 90 | CN(C)Cc1cncc(-c2cc(F)c3[nH]nc(-c4nc5c(-c6cccc(F)c6)nccc5[nH]4)c3c2)c1 [Compound 456, 1-(5-(7-Fluoro-3-(4-(3-fluorophenyl)-1H-imidazo[4,5-c]pyridin-2-yl)-1H-indazol-5-yl)pyridin-3-yl)-N,N-dimethylmethanamine] |
| 96 | CN(C)Cc1cncc(-c2cc(F)c3[nH]nc(-c4nc5c(-c6cc(F)cc(CNS(C)(=O)=O)c6)nccc5[nH]4)c3c2)c1 [Compound 844, N-(3-(2-(5-(5-((Dimethylamino)methyl)pyridin-3-yl)-7-fluoro-1H-indazol-3-yl)-1H-imidazo[4,5-c]pyridin-4-yl)-5-fluorobenzyl)methanesulfonamide] |
| 23 | Cc1ncc(-c2ccc3[nH]nc(-c4nc5c(-c6cccc(F)c6)nccc5[nH]4)c3c2)n1C [Compound 1773, 2-(5-(1,2-Dimethyl-1H-imidazol-5-yl)-1H-indazol-3-yl)-4-(3-fluorophenyl)-1H-imidazo[4,5-c]pyridine] |
| 70 | CN1CCN(c2nccc3[nH]c(-c4n[nH]c5ccc(-c6cn[nH]c6)cc45)nc23)CC1 [Compound 1915, 2-(5-(1H-pyrazol-4-yl)-1H-indazol-3-yl)-4-(4-methylpiperazin-1-yl)-1H-imidazo[4,5-c]pyridine] |
| 35 | CC(C)CC(=O)Nc1cncc(-c2ccc3[nH]nc(-c4nc5c(-c6cc(O)cc(F)c6)nccc5[nH]4)c3c2)c1 [Compound 2164, N-(5-(3-(4-(3-Fluoro-5-hydroxyphenyl)-1H-imidazo[4,5-c]pyridin-2-yl)-1H-indazol-5-yl)pyridin-3-yl)-3-methylbutanamide] |
| 20 | COc1cc(F)cc(-c2nccc3[nH]c(-c4n[nH]c5ccc(-c6cncc(NC(=O)CC(C)C)c6)cc45)nc23)c1 [Compound 2208, N-(5-(3-(4-(3-Fluoro-5-methoxyphenyl)-1H-imidazo[4,5-c]pyridin-2-yl)-1H-indazol-5-yl)pyridin-3-yl)-3-methylbutanamide] |
| 20 | c1cncc(-c2ccc3[nH]nc(-c4nc5c(N6CCOCC6)nccc5[nH]4)c3c2)c1 [Compound 2272, 4-(2-(5-(Pyridin-3-yl)-1H-indazol-3-yl)-1H-imidazo[4,5-c]pyridin-4-yl) morpholine] |
